Converted amounts (≈) assume the structure as drawn.
Columns and labels:
Type in all cases: cell-based
THP-1 cell [1] = assay: Differentiation of monocyte to macrophage in THP-1 cell line; conditions: for EC50: THP-1 differentiate to macrophage, PMA, 96 hrs incubation; for Emax / Maximal activation level: ratio of best effect of compound to that of erythromycin 100 uM, THP-1 differentiation; for Emax: read-out: Maximal activation level
Protocol: The THP-1 cell line was purchased from ATCC (American Type Culture Collection, Manassas, Va.). Cells were maintained in growth medium (RPMI-1640) with supplemented with 10% heat inactivated bovine serum, 100× Glutamax medium and 0.05 mM β-Mercaptoethanol at 37° C. under 5% CO2. Compounds were dissolved in 0.1% DMSO. Erythromycin was used as a positive control.
For the assessment of the effect of compounds of the present invention on differentiation of monocyte to macrophage in THP-1 cell line, cells were collected and centrifuged at 900 rpm for 4 minutes. The cell density was adjusted to 2.5×10^5/mL. cell suspension of 400 μL was added to each well of 48-well plate following the plate layout. PMA 1 mg, a compound can induce monocyte differentiation, was dissolved in 10 mL DMSO to form 100 μg/mL solution and aliquote it into 1 mL per vial. 1 mL solution can be further aliquoted into 10 μL per vial and stored the aliquots at −20° C. Make 10-fold dilution of PMA with DMSO and then 500-fold dilution with complete medium. 50 μL solution were then added to each well of 48-well plate following the plate layout. Erythromycin and compounds of examples at stock concentration of 10 mM was serially diluted at 10-fold in DMSO. 50 μL solution was added to each well of 48-well plate following the plate layout. After 96 hrs incubation at 37° C., 5% CO2, the plate was washed with DPBS for three times to remove non-adherent cells for three times. Complete medium 180 μL and alarmar blue 20 μL was added to each well. The fluorescent intensity was read at excitation 530 nm and emission 590 nm using PerkinElmer Victor3 after 3 hours plate incubation.
The differentiation activity of compounds of Examples is compared to that of 100 μM erythromycin and the results are shown in FIG. 1 and Table 3.

THP-1 cell [2] = assay: Cell viability (LD50) in THP-1 differentiation test
Protocol: The medium lethal dose (LD50) is the dosage of a compound that reduces the cell viability by 50%, and is determined using non-linear logistic regression.

BEAS-2B cell = assay: Cell viability (LD10) in BEAS-2B IL-8 test; conditions: BEAS-2B cell viability
Description: The lethal dose (LD10) is the dosage of a compound that reduces the cell viability by […], and is estimated from non-linear logistic regression.

[3] = system: IL-8 expression in BEAS-2B cell; assay: LPS induced IL-8 release by BEAS-2B (ELISA); conditions: for Maximum Inhibition: IL-8 expression in BEAS-2B cells, LPS; for IC10: concentration inhibiting IL-8 production on BEAS-2B by 10%, LPS 20 μg/mL
Protocol: The inhibitory effect of compounds of Examples on the IL-8 expression in BEAS-2B cell was tested using the following method. BEAS-2B was purchased from ATCC (American Type Culture Collection, Manassas, Va.). Cells were maintained in growth medium (LHC-9) and cultured at 37° C. under 5% CO2. Compounds were dissolved in 0.1% DMSO. Erythromycin was used as a positive control.
For the assessment of the effect of compounds of Examples on IL-8 expression inhibition in BEAS-2B cell line, cells were plated in 24 well plate at a density of 100,000/mL, in a final volume of 1 mL of assay medium. Cells were incubated at 37° C., 5% CO2 for 1 day. After the incubation, compounds were added at day 2 and LPS was added at day 3. A compound source plate was prepared by triplicate five-point 10-fold or 2-fold serial dilutions in DMSO, beginning at 1 mM (final top concentration of compounds of Examples in the assay was 100 μM and the DMSO was 0.1%). The positive control consisted of cells treated with 100 μM erythromycin and negative control was consisted of 0.1% DMSO treated cells. LPS stock solution at 5 mg/mL was made by dissolving 10 mg of LPS powder into 2 mL of ddH2O and aliquoted to 100 μL per vial. Final concentration of LPS in the assay was […] by making 125-fold dilution of stock solution with medium.
Specific immunoreactivity for IL-8 in culture supernatants were measured by a commercially available ELISA kits (R&D Systems, Inc., Minneapolis, Minn.). Each sample was assayed in duplicates as recommended by the manufacture. The concentration of compounds of Examples inhibiting IL-8 production on BEAS-2B by 10% was estimated from a 4-parametric of the normalized dose response curve. (IC10)

[4] = system: Streptococcus pneumoniae ATCC 49619; assay: Antibacterial activity, agar dilution MIC; conditions: ATCC49619, 20-24 hrs incubation, read-out: minimum inhibitory concentration MIC
Protocol: (§1) The antibacterial activity of Erythromycin and compounds of examples were evaluated by the agar dilution method, following the guidelines of the CLSI. […] Briefly, bacteria were grown overnight in adapted media (MHIIA with 5% of sheep blood for Streptococcus pneumoniae and Haemophilus influenzae, and MHIIA for the other bacteria strains) at 35° C., 5% CO2.
(§2) Cultures were centrifuged at 3000×g for 15 min. Pellets were diluted with 5 mls cold PBS and the OD600nm was adjusted to 10^8 CFU.mL^−1 with a spectrometer. Bacteria were then added to 96-well test plates. Compounds were diluted in DMSO in a 2 fold steps from 20 mg/ml in DMSO in 96 well plated and transferred to the test plate. During the incubation, the plate was maintained at 35° C., 5% CO2.
(§3) The MICs for Erythromycin and compounds of examples were determined after 20-24 hrs incubation.

[5] = system: Staphylococcus aureus ATCC 29213; assay: Antibacterial activity, agar dilution MIC; conditions: ATCC29213, 20-24 hrs incubation, read-out: minimum inhibitory concentration MIC
Protocol: as §1, §2, §3

[6] = system: Acinetobacter baumanii ATCC 17978; assay: Antibacterial activity, agar dilution MIC; conditions: Acinetobacter baumannii, ATCC17978, 20-24 hrs incubation, read-out: minimum inhibitory concentration MIC
Protocol: as §1, §2, §3

[7] = system: Staphylococcus aureus NRS 384; assay: Antibacterial activity, agar dilution MIC; conditions: NRS384, 20-24 hrs incubation, read-out: minimum inhibitory concentration MIC
Protocol: as §1, §2, §3

[8] = system: Streptococcus pneumoniae ATCC 6301; assay: Antibacterial activity, agar dilution MIC; conditions: ATCC6301, 20-24 hrs incubation, read-out: minimum inhibitory concentration MIC
Protocol: as §1, §2, §3

[9] = system: Enterococcus faecalis ATCC 29212; assay: Antibacterial activity, agar dilution MIC; conditions: ATCC29212, 20-24 hrs incubation, read-out: minimum inhibitory concentration MIC
Protocol: as §1, §2, §3

[10] = system: Moraxella catarrhalis ATCC 43617; assay: Antibacterial activity, agar dilution MIC; conditions: ATCC43617, 20-24 hrs incubation, read-out: minimum inhibitory concentration MIC
Protocol: as §1, §2, §3

[11] = system: Haemophilus influenzae ATCC 49247; assay: Antibacterial activity, agar dilution MIC; conditions: ATCC49247, 20-24 hrs incubation, read-out: minimum inhibitory concentration MIC
Protocol: as §1, §2, §3

[12] = system: Acinetobacter baumannii ATCC-BAA-1605; assay: Antibacterial activity, agar dilution MIC; conditions: ATCCBAA1605, 20-24 hrs incubation, read-out: minimum inhibitory concentration MIC
Protocol: as §1, §2, §3

[13] = system: Streptococcus pyogenes ATCC BAA-572; assay: Antibacterial activity, agar dilution MIC; conditions: ATCCBAA572, 20-24 hrs incubation, read-out: minimum inhibitory concentration MIC
Protocol: as §1, §2, §3

[14] = dosage that reduces the cell viability by 50%, THP-1

| Compound | EC50 (THP-1 cell [1]; Homo sapiens) [µM] | Emax (THP-1 cell [1]; Homo sapiens) [%] | LD50 (THP-1 cell [2]; human) [µM] | LD10 (BEAS-2B cell) [µM] | Maximum Inhibition [3] [%] | IC10 [3] [µM] | further results |
| --- | --- | --- | --- | --- | --- | --- | --- |
| CC[C@H]1OC(=O)[C@H](C)[C@@H](OC2CC(C)(OC)C(O)C(C)O2)[C@H](C)[C@@H](OC2CC(N(C)C)CC(C)O2)[C@@](C)(O)CC(C)[C@H](N)[C@H](C)[C@@H](O)[C@]1(C)O (some centres unmarked) [LY101-30] | 36.8 ± 20.1 | 610 ± 120 | 65.3 ± 7.1 |  |  |  |  |
| CC[C@H]1OC(=O)[C@H](C)[C@@H](OC2CC(C)(OC)C(O)C(C)O2)[C@H](C)[C@@H](OC2CC(N(C)C(C)=O)CC(C)O2)[C@@]2(C)CC(C)=C(O2)[C@H](C)[C@@H](O)[C@]1(C)O (some centres unmarked) [LY101-27] |  |  |  | 100 | 40 | 10 | EC50 (THP-1 cell [1]): 12.2 ± 4.6 µM; Maximal activation level (THP-1 cell [1]): 5.3 ± 1.5; LD50 (THP-1 cell [2]; [14]): 121.1 ± 7.8 µM |
| CC[C@H]1OC(=O)[C@H](C)[C@@H](OC2CC(C)(OC)C(O)C(C)O2)[C@H](C)[C@@H](OC2CC(N(C)C)CC(C)O2)[C@@](C)(O)C[C@@H](C)CN(C)[C@H](C)[C@@H](O)[C@]1(C)O (some centres unmarked) [LY101-44] | 1.2 ± 0.2 | 450 ± 90 | 20.4 ± 8.4 |  |  |  |  |
| CC[C@H]1OC(=O)[C@H](C)[C@@H](OC2CC(C)(OC)C(O)C(C)O2)[C@H](C)[C@@H](OC2CC(N(C)C(C)=O)CC(C)O2)[C@@](C)(O)C[C@@H](C)CN(C)[C@H](C)[C@@H](O)[C@]1(C)O (some centres unmarked) [LY101-48] | 18.5 ± 4.2 | 420 ± 110 | 111.0 ± 13.6 |  |  |  |  |
| CC[C@H]1OC(=O)[C@H](C)[C@@H](OC2CC(C)(OC)C(O)C(C)O2)[C@H](C)[C@@H](OC2CC(N(C)C)CC(C)O2)[C@@](C)(O)C[C@@H](C)[C@H](O)[C@H](C)[C@@H](O)[C@]1(C)O (some centres unmarked) [LY101-45] | 1.5 ± 0.7 | 530 ± 60 | 24.2 ± 5.1 | 15 | 40 | 1 | MIC [4]: > 128 µg/mL; MIC [5]: > 128 µg/mL; MIC [6]: > 128 µg/mL; MIC [7]: > 128 µg/mL; MIC [8]: > 128 µg/mL; MIC [9]: > 128 µg/mL; MIC [10]: > 128 µg/mL; MIC [11]: > 128 µg/mL; MIC [12]: > 128 µg/mL; MIC [13]: > 128 µg/mL |
| CC[C@H]1OC(=O)[C@H](C)[C@@H](OC2CC(C)(OC)C(O)C(C)O2)[C@H](C)[C@@H](OC2CC(N(C)C(C)C)CC(C)O2)[C@@]2(C)CC(C)=C(O2)[C@H](C)[C@@H](O)[C@]1(C)O (some centres unmarked) [LY101-24] |  |  |  | 50 | 42 | 10 | EC50 (THP-1 cell [1]): 6.8 ± 1.4 µM; Maximal activation level (THP-1 cell [1]): 7.0 ± 1.6; LD50 (THP-1 cell [2]; [14]): 56.9 ± 14.0 µM |
| CC[C@H]1OC(=O)[C@H](C)[C@@H](OC2CC(C)(OC)C(O)C(C)O2)[C@H](C)[C@@H](OC2CC(N(C)C(C)=O)CC(C)O2)[C@@](C)(O)C[C@@H](C)[C@H](O)[C@H](C)[C@@H](O)[C@]1(C)O (some centres unmarked) [LY101-33] | 22.6 ± 5.7 | 314 ± 1 | 110.0 ± 12.1 | 60 | 25 | 20 |  |
| CC[C@H]1OC(=O)[C@H](C)[C@@H](OC2CC(C)(OC)C(O)C(C)O2)[C@H](C)[C@@H](OC2CC(NC)CC(C)O2)[C@@](C)(O)C[C@@H](C)[C@H](O)[C@H](C)[C@@H](O)[C@]1(C)O (some centres unmarked) [LY101-31] | 32.8 ± 2.5 | 620 ± 150 | 115.0 ± 10.4 |  |  |  |  |
| CC[C@H]1OC(=O)[C@H](C)[C@@H](O[C@H]2C[C@@](C)(OC)[C@@H](O)[C@H](C)O2)[C@H](C)[C@@H](O[C@H]2C[C@@H](N(C)C)C[C@@H](C)O2)[C@](C)(O)C[C@@H](C)C(=O)[C@H](C)[C@@H](O)[C@]1(C)O [LY101-2, (3R,4S,5S,6R,9R,11R,12R,13S,14R)-6-(((2S,4S,6R)-4-(dimethylamino)-6-methyltetrahydro-2H-pyran-2-yl)oxy)-14-ethyl-7,12,13-trihydroxy-4-(((2R,4R,5S,6S)-5-hydroxy-4-methoxy-4,6-dimethyltetrahydro-2H-pyran-2-yl)oxy)-3,5,7,9,11,13-hexamethyloxacyclotetradecane-2,10-dione] | 0.3 ± 0.03 | 650 ± 170 | 4.6 ± 1.3 |  |  |  | MIC [4]: 16 µg/mL (≈ 22.3 µM); MIC [5]: 64 µg/mL (≈ 89.1 µM); MIC [6]: > 128 µg/mL; MIC [7]: > 128 µg/mL; MIC [8]: 64 µg/mL (≈ 89.1 µM); MIC [9]: > 128 µg/mL; MIC [10]: > 128 µg/mL; MIC [11]: > 128 µg/mL; MIC [12]: > 128 µg/mL; MIC [13]: 64 µg/mL (≈ 89.1 µM) |
| CC[C@H]1OC(=O)[C@H](C)[C@@H](OC2CC(C)(OC)C(O)C(C)O2)[C@H](C)[C@@H](OC2CC(N(C)C(C)C)CC(C)O2)[C@@](C)(O)C[C@@H](C)CN(C)[C@H](C)[C@@H](O)[C@]1(C)O (some centres unmarked) [LY101-47] | 4.3 ± 1.8 | 310 ± 110 | 64.7 ± 17.9 |  |  |  |  |
| CC[C@H]1OC(=O)[C@H](C)[C@@H](O)[C@H](C)[C@@H](OC2CC(N(C)C)CC(C)O2)[C@@](C)(O)C[C@@H](C)/C(=N\OCOCCOC)[C@H](C)[C@@H](O)[C@]1(C)O (some centres unmarked) [LY101-40] | 106 | 180 | 100 |  |  |  |  |
| CC[C@H]1OC(=O)[C@H](C)[C@@H](OC2CC(C)(OC)C(O)C(C)O2)[C@H](C)[C@@H](OC2CC(NC)CC(C)O2)[C@@]2(C)CC(C)=C(O2)[C@H](C)[C@@H](O)[C@]1(C)O (some centres unmarked) [LY101-6] |  |  |  |  |  |  | EC50 (THP-1 cell [1]): 11.5 ± 3.2 µM; Maximal activation level (THP-1 cell [1]): 3.9 ± 0.8; LD50 (THP-1 cell [2]; [14]): 103.2 ± 11.4 µM |
